Counter-ions that a name gives are not always drawn.
Molecular target: serotonin reuptake (Rattus norvegicus, UniProt P31652)
Assay: in vitro serotonin reuptake inhibition assay (Paracelsian)
Format: biochemical
Procedure: The bioassay was performed in quadruplicate by Paracelsian, Inc., Ithaca, N.Y. and were all in compliance with our standard operating protocols, having a standard deviation less than ±5%.

Sequence of serotonin reuptake (P31652 whole entry): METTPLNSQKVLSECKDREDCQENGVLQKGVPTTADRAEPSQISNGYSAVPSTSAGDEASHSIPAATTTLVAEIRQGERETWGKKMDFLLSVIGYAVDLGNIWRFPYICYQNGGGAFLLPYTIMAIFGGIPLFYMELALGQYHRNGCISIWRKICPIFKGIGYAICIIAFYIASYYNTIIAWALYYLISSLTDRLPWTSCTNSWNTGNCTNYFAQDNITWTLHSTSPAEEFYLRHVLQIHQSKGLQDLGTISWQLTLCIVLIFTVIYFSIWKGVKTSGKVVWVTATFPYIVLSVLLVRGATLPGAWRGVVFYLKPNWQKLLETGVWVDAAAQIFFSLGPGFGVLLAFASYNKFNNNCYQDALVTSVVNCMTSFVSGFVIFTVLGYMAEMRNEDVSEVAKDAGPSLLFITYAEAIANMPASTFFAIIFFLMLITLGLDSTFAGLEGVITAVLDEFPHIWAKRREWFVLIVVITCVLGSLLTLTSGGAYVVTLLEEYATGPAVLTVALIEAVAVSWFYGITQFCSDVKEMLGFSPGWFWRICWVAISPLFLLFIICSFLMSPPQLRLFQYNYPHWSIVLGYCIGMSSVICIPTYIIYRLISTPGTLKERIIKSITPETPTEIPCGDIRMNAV

How did the “Serotonin Reuptake Inhibition (%)” value (sample weight 2 μg) turn out when hyperforin [Hyperforin (Aphios)] was run?
The value was 80.3%.

Which “Serotonin Reuptake Inhibition (%)” value (sample weight 65 ng) does the source give for CN(C)CCCN1c2ccccc2CCc2ccccc21 [Imipramine (Sigma), imipramine hydrochloride] here?
The value was 38.3%.

Which “Serotonin Reuptake Inhibition (%)” value (sample weight 2 μg) does the source give for Cc1cc(O)c2c(=O)c3c(O)cc(O)c4c5c(O)cc(O)c6c(=O)c7c(O)cc(C)c8c1c2c(c34)c(c78)c65 [Hypericin (Sigma), hypericin] here?
Its value is 0.0%.

Source: US20060240098A1, “Formulations for hyperforin-enriched hypericum fractions” (Aphios Corporation, priority 2004, published 2006)
